Columns and labels:
Mus musculus [1] = assay: In vivo analgesic activity evaluated by using acetic acid writhing test in mice administered subcutaneously at a dose of 20 mg/kg; format: functional; settings: sc, route subcutaneous
Mus musculus [2] = assay: (§1) In vivo analgesic activity evaluated by using acetic acid writhing test in mice administered subcutaneously at a dose of 0.02 mg/kg; format: functional; settings: sc, route subcutaneous
Mus musculus [3] = assay: as §1; format: functional; settings: sc, route subcutaneous; remark: listed apart in the source
[4] = Toxicity in mice administered subcutaneously; settings: mouse, in vivo, sc
Mus musculus [5] = assay: (§2) In vivo analgesic activity evaluated by using acetic acid writhing test in mice administered subcutaneously at a dose of 10 mg/kg; format: functional; settings: sc, route subcutaneous
Mus musculus [6] = assay: (§3) In vivo analgesic activity evaluated by using acetic acid writhing test in mice administered subcutaneously at a dose of 2 mg/kg; format: functional; settings: sc, route subcutaneous
Mus musculus [7] = assay: as §3; format: functional; settings: sc, route subcutaneous; remark: listed apart in the source
Mus musculus [8] = assay: In vivo analgesic activity evaluated by using acetic acid writhing test in mice administered subcutaneously at a dose of […]; format: functional; settings: sc, dose 2.5 mg/kg, route subcutaneous
Mus musculus [9] = assay: (§4) In vivo analgesic activity evaluated by using acetic acid writhing test in mice administered subcutaneously at a dose of 5 mg/kg; format: functional; settings: sc, route subcutaneous
Mus musculus [10] = assay: In vivo analgesic activity evaluated by using acetic acid writhing test in mice administered subcutaneously at a dose of 0.05 mg/kg; format: functional; settings: sc, route subcutaneous
Mus musculus [11] = organism: Mus musculus; assay: […]; format: functional; settings: sc, route subcutaneous
Mus musculus [12] = assay: as §2; format: functional; settings: sc, route subcutaneous; remark: listed apart in the source
Mus musculus [13] = assay: as §4; format: functional; settings: sc, route subcutaneous; remark: listed apart in the source
Mus musculus [14] = assay: (§5) In vivo analgesic activity evaluated by using acetic acid writhing test in mice administered subcutaneously at a dose of 0.2 mg/kg; format: functional; settings: sc, route subcutaneous
Mus musculus [15] = assay: as §5; format: functional; settings: sc, route subcutaneous; remark: listed apart in the source

CCCCCCCCCCCCOC(CN1CC[N+]2(CCCC2)CC1)CN1CC[N+]2(CCCC2)CC1
inhibition in vivo at 20 mg/kg (Mus musculus [1]): 18%

O=C(CCCCCC(=O)N1CC[N+]2(CCCC2)CC1)N1CC[N+]2(CCCC2)CC1.[Br-].[Br-]
inhibition in vivo at 0.02 mg/kg (Mus musculus [2]): 0%
inhibition in vivo at 0.02 mg/kg (Mus musculus [3]): 0%
Death dose [4]: 0.2 mg/kg

CN1CCN(C(=O)CCCCC(=O)N2CCN(C)CC2)CC1
inhibition in vivo at 10 mg/kg (Mus musculus [5]): 10.9%

C(CCCN1CC[N+]2(CCCC2)CC1)CCN1CC[N+]2(CCCC2)CC1
inhibition in vivo at 2 mg/kg (Mus musculus [6]): 72.4%
inhibition in vivo at 2 mg/kg (Mus musculus [7]): 56.6%

O=C(CC(=O)N1CC[N+]2(CCCC2)CC1)N1CC[N+]2(CCCC2)CC1.[Br-].[Br-]
inhibition in vivo at 2 mg/kg (Mus musculus [6]): 0%
inhibition in vivo at 2 mg/kg (Mus musculus [7]): 0%
Death dose [4]: 40 mg/kg

CCCCCCOC(CN1CC[N+]2(CCCC2)CC1)CN1CC[N+]2(CCCC2)CC1
inhibition in vivo at 10 mg/kg (Mus musculus [5]): 91%
inhibition in vivo at […] (Mus musculus [8]): 49%
inhibition in vivo at 20 mg/kg (Mus musculus [1]): 100%
inhibition in vivo at 5 mg/kg (Mus musculus [9]): 61%

C(CCCCN1CC[N+]2(CCCC2)CC1)CCCN1CC[N+]2(CCCC2)CC1
inhibition in vivo at 2 mg/kg (Mus musculus [6]): 98.6%
inhibition in vivo at 2 mg/kg (Mus musculus [7]): 0%

O=C(CCC(=O)N1CC[N+]2(CCCC2)CC1)N1CC[N+]2(CCCC2)CC1.[Br-].[Br-]
inhibition in vivo at 2 mg/kg (Mus musculus [6]): 47.7%
inhibition in vivo at 2 mg/kg (Mus musculus [7]): 0%
Death dose [4]: 20 mg/kg

CCOC(CN1CC[N+]2(CCCC2)CC1)CN1CC[N+]2(CCCC2)CC1
inhibition in vivo at 10 mg/kg (Mus musculus [5]): 46%
inhibition in vivo at 20 mg/kg (Mus musculus [1]): 90%
inhibition in vivo at 5 mg/kg (Mus musculus [9]): 34%

C[N+]1(C)CCN(C(=O)CCCCC(=O)N2CC[N+](C)(C)CC2)CC1
inhibition in vivo at 0.05 mg/kg (Mus musculus [10]): 60.1%

O=C(CCCCC(=O)N1CCNCC1)N1CCNCC1
inhibition in vivo at 5 mg/kg (Mus musculus [9]): 34.5%

C(CCCCCN1CC[N+]2(CCCC2)CC1)CCCCN1CC[N+]2(CCCC2)CC1
inhibition in vivo at 2 mg/kg (Mus musculus [6]): 84.6%
inhibition in vivo at 2 mg/kg (Mus musculus [7]): 0%

O=C(CCCCCCC(=O)N1CC[N+]2(CCCC2)CC1)N1CC[N+]2(CCCC2)CC1.[Br-].[Br-]
inhibition in vivo at 0.02 mg/kg (Mus musculus [2]): 27.5%
inhibition in vivo at 0.02 mg/kg (Mus musculus [3]): 0%
Death dose [4]: 0.2 mg/kg

CCCCCCCCCCCCCCCCCCOC(CN1CC[N+]2(CCCC2)CC1)CN1CC[N+]2(CCCC2)CC1
inhibition in vivo at 20 mg/kg (Mus musculus [11]): 24%

C(CN1CC[N+]2(CCCC2)CC1)CN1CC[N+]2(CCCC2)CC1
inhibition in vivo at 10 mg/kg (Mus musculus [12]): 4.7%
inhibition in vivo at 5 mg/kg (Mus musculus [13]): 0%
inhibition in vivo at 10 mg/kg (Mus musculus [5]): 96%
inhibition in vivo at 5 mg/kg (Mus musculus [9]): 45.5%

O=C(CCCCC(=O)N1CC[N+]2(CCCC2)CC1)N1CC[N+]2(CCCC2)CC1.[Br-].[Br-]
inhibition in vivo at 0.2 mg/kg (Mus musculus [14]): 8.1%
inhibition in vivo at 0.2 mg/kg (Mus musculus [15]): 70.4%
Death dose [4]: 2 mg/kg

O=C(CCCC(=O)N1CC[N+]2(CCCC2)CC1)N1CC[N+]2(CCCC2)CC1.[Br-].[Br-]
inhibition in vivo at 2 mg/kg (Mus musculus [6]): 67.4%
inhibition in vivo at 2 mg/kg (Mus musculus [7]): 0%
Death dose [4]: 20 mg/kg
